Source: US20040180817A1, “Neuropathologies associated with expression of tnf-$g (a)” (priority 2001, published 2004)
“Also recorded” adds a separate entry of the source.

How the values were obtained:
[1] = test system: rrTNF-α-induced reduction in striatal rCBV; assay: Effect of ET receptor antagonist on rrTNF-α-induced acute rCBV reduction (MRI); format: in vivo, rat; details: 5 mg/kg i.v. 10 min prior to 1.5 μg intrastriatal rrTNF-α; 1.5 h
Procedure: (§1) Adult male Wistar rats (Harlan-Olac, UK) were anaesthetised with fentanyl/fluanisone and midazolam (0.68 ml/kg of each). Using a 50 μm-tipped glass pipette, 1 μl rat recombinant TNF-α (NIBSC, Potters Bar, UK) solution was injected stereotaxically 1 mm anterior and 3 mm lateral to Bregma, at a depth of 4 mm into the left striatum. Animals were injected with either 0.3 μg/μl or 1.5 μg/μl of TNF-A, each in 0.1% BSA in low-endotoxin saline, or with vehicle solution only. Animals were positioned in the MRI probe (3.4 cm i.d. Alderman-Grant resonator) using a bite-bar. During MRI, anaesthesia was maintained with 0.8-1.2% halothane in 50% N2O/50% O2, ECG was monitored non-invasively and body temperature was maintained at […]. All procedures were approved by the United Kingdom Home Office.
(§2) Magnetic resonance images were acquired using a 300 MHz Varian Inova spectrometer (Varian, Palo Alto, Calif.). […] Diffusion gradients were applied separately along three orthogonal axes and apparent diffusion coefficient (ADC) “trace” maps were calculated^40. […]
(§3) Regions of Interest (ROI) encompassing the striatum were defined on T2-weighted images in each hemisphere, and applied to all images or calculated data maps for quantitation. For the rCBV maps and T2-weighted images the data are expressed as a ratio of injected/non-injected striatal values. […]

[2] = test system: rat brain striatum (tissue water diffusion); assay: Diffusion weighted MRI: apparent diffusion coefficient (ADC) of tissue water in striatum; format: in vivo; details: 24 h
Procedure: as §1, §2, §3

[3] = test system: blood-cerebrospinal fluid barrier and blood-brain barrier; assay: Contrast-enhanced T1-weighted MRI of B-CSF-B / BBB permeability; format: in vivo, rat
Procedure: as §1
Magnetic resonance images were acquired using a 300 MHz Varian Inova spectrometer (Varian, Palo Alto, Calif.). Anatomical images were acquired using a T2-weighted sequence (repetition time, TR, 3 sec; echo time, TE, 80 msec). […] Diffusion gradients were applied separately along three orthogonal axes and apparent diffusion coefficient (ADC) “trace” maps were calculated^40. […]

Compound: COc1cccc(Oc2c(NS(=O)(=O)c3ccc(C(C)(C)C)cc3)ncnc2OCCO)c1 [Ro 46-2005]
- effect on rrTNF-α-induced reduction in striatal rCBV [1]: No significant differences; also recorded: eliminated
- Apparent Diffusion Coefficient, Right (control) striatum ([2]; Ro 46-2005 i.v. pre-treatment + 1.5 μg rrTNF-α intrastriatal (left)): 7.23 ± 0.17 ×10^−4 mm^2/sec
- effect of pre-treatment on TNF-α-induced reduction in ADC ([2]; pre-treatment before 1.5 μg rrTNF-α): not affected
- BBB breakdown: increase in signal intensity of injected striatum ([3]; Ro 46-2005 pre-treatment + 1.5 g TNF-α (so in the source), 24 h): 10.3±2.7%
- effect of pre-treatment on TNF-α-induced B-CSF-B breakdown ([3]; pre-treatment before TNF-α, 1.5 h): did not significantly alter
